Values of other authors, collected in US8686153B2, “Lenalidomide salts” (Synthon B.V., priority 2009, dated 2014).

solubility at pH 4.6, 6.8 and 7.4: 0.4-0.5 mg/ml
Compound: Nc1cccc2c1CN(C1CCC(=O)NC1=O)C2=O (racemic) [Lenalidomide, 3-(4-amino-1-oxo-3H-isoindol-2-yl)piperidine-2,6-dione]
